Literature values as cited in patent US12636262B2, “Process for the preparation of topical formulation” (Neuheit Pharma Technologies Pvt. Ltd, priority 2019, dated 2026).

Conditions: reported

For CC(=O)Oc1cccc2c1C(=O)c1c(OC(C)=O)cc(C(=O)O)cc1C2=O [Diacerein, 4,5-diacetyloxy-9,10-dioxo-anthracene-2-carboxylic acid], the oral bioavailability is listed as 40-60%.
